The values below come from US9029359B2, “Heteroaryl Btk inhibitors” (Biogen Idec MA, Inc., priority 2009, dated 2015).

In the assay the target is T1, BTK (Homo sapiens, UniProt Q06187).
T1 construct: purchased Upstate 14-552
The assay is described as follows: In vitro BTK kinase assay: BTK-POLYGAT-LS ASSAY. Format: biochemical. As to conditions: ATP 10 uM. The gist of the method:
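BTK phosphorylation of polyGAT (100 nM final) with ATP at 10 μM final, 10 mM Tris-HCl pH 7.5 kinase buffer, quenched by EDTA after 30 min. Potency given as IC50.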

T1 sequence (Q06187 whole entry): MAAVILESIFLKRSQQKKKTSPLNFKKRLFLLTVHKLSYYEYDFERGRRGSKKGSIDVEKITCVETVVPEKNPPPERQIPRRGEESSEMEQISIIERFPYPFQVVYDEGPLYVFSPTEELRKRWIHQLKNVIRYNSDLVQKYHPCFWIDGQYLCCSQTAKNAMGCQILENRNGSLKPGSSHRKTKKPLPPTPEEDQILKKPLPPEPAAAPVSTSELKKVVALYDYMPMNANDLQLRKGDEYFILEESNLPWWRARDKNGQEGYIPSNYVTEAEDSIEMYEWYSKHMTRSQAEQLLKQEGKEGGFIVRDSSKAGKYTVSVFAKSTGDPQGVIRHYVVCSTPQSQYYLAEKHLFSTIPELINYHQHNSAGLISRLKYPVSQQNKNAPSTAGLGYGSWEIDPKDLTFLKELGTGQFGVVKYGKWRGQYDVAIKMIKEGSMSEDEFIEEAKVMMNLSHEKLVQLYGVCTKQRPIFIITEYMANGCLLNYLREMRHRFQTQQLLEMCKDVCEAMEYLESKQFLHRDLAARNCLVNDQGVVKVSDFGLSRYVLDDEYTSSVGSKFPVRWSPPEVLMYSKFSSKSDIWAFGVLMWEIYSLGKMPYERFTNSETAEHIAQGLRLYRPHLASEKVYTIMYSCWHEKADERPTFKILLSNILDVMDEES

`Nc1ncnc(N2CCC[C@@H](NC(=O)CNc3cc(Cl)cc(Cl)c3)C2)c1Cl` [Example 140, (R)—N-(1-(6-amino-5-chloropyrimidin-4-yl)piperidin-3-yl)-2-(3,5-dichlorophenylamino)acetamide] gave a half-maximal inhibitory concentration (IC50) of 100 to 999 nM.
Compound `CC(=O)Nc1cc(N2CCC[C@@H](NC(=O)CNc3cc(Cl)cc(Cl)c3)C2)ncn1` [Example 141, (R)—N-(1-(6-acetamidopyrimidin-4-yl)piperidin-3-yl)-2-(3,5-dichlorophenylamino)acetamide] displayed a half-inhibitory concentration (IC50) of 1000 to 10000 nM.
Next, `CC(C)Nc1cc(N2CCC[C@@H](NC(=O)CNc3cc(Cl)cc(Cl)c3)C2)ncn1` [Example 142, (R)-2-(3,5-dichlorophenylamino)-N-(1-(6-(isopropylamino)pyrimidin-4-yl)piperidin-3-yl)acetamide]: 1000 to 10000 nM.
Next, `CCNc1cc(N2CCC[C@@H](NC(=O)CNc3cc(Cl)cc(Cl)c3)C2)ncn1` [Example 143, (R)-2-(3,5-dichlorophenylamino)-N-(1-(6-(ethylamino)pyrimidin-4-yl)piperidin-3-yl)acetamide]: 1000 to 10000 nM; `CNc1cc(N2CCC[C@@H](NC(=O)CNc3cc(Cl)cc(Cl)c3)C2)ncn1` [Example 144, (R)-2-(3,5-dichlorophenylamino)-N-(1-(6-(methylamino)pyrimidin-4-yl)piperidin-3-yl)acetamide]: 100 to 999 nM; `C[C@H]1CC[C@@H](NC(=O)[C@H](Nc2cc(F)cc(Cl)c2)C2CC2)CN1c1ncnc2[nH]ncc12` [Example 148, (R)-2-(3-chloro-5-fluorophenylamino)-2-cyclopropyl-N-((3R,6S)-6-methyl-1-(1H-pyrazolo[3,4-d]pyrimidin-4-yl)piperidin-3-yl)acetamide]: 100 to 999 nM.
Next, `O=C(NC1CN(c2ncnc3[nH]ncc23)CCC1c1ccccc1)[C@H](Nc1cc(F)cc(Cl)c1)C1CC1` (stereo partly drawn) [Example 149, (R)-2-(3-chloro-5-fluorophenylamino)-2-cyclopropyl-N-(4-phenyl-1-(1H-pyrazolo[3,4-d]pyrimidin-4-yl)piperidin-3-yl)acetamide]: < 100 nM; `C[C@H]1CCN(c2ncnc3[nH]ncc23)C[C@@H]1NC(=O)[C@H](Nc1cc(Cl)cc(Cl)c1)C1CC1` [Example 152, (R)-2-cyclopropyl-2-(3,5-dichlorophenylamino)-N-((3R,4S)-4-methyl-1-(1H-pyrazolo[3,4-d]pyrimidin-4-yl)piperidin-3-yl)acetamide]: < 100 nM; `CCC[C@@H](Nc1cc(Cl)cc(Cl)c1)C(=O)N[C@H]1CN(c2ncnc3[nH]ncc23)CC[C@@H]1C` [Example 153]: < 100 nM.
Take `CC[C@@H](Nc1cc(F)cc(Cl)c1)C(=O)N[C@H]1CN(c2ncnc3[nH]ncc23)CC[C@@H]1C` [Example 154]: the half-maximal inhibitory concentration (IC50) was < 100 nM.
Take `O=C(CNc1ccccc1S(=O)(=O)c1ccccc1)N[C@@H]1CCCN(c2ncnc3[nH]ncc23)C1` [Example 163]: the IC50 is < 100 nM.
As for `C[C@@H](O)[C@@H](Nc1cc(Cl)cc(Cl)c1)C(=O)N[C@@H]1CCCN(c2ncnc3[nH]ncc23)C1` [Example 164], the 50% inhibitory concentration (IC50) is < 100 nM.
Then `C[C@H](O)[C@@H](Nc1cc(Cl)cc(Cl)c1)C(=O)N[C@@H]1CCCN(c2ncnc3[nH]ncc23)C1` [Example 165], with < 100 nM; and `CCC[C@@H](Nc1cc(Cl)cc(Cl)c1)C(=O)N[C@@H]1CCCN(c2ncnc3[nH]ncc23)C1` [Example 166], with < 100 nM; and `O=C(CNc1ccccc1Sc1ccccc1)N[C@@H]1CCCN(c2ncnc3[nH]ncc23)C1` [Example 167], with < 100 nM.
Next, `CCC[C@@H](Nc1cc(F)cc(Cl)c1)C(=O)N[C@@H]1CCCN(c2ncnc3[nH]ncc23)C1` [Example 168]: < 100 nM; `CCC[C@@H](Nc1cccc(Cl)c1)C(=O)N[C@@H]1CCCN(c2ncnc3[nH]ncc23)C1` [Example 169]: < 100 nM.
Next, `O=C(CNc1ccccc1S(=O)(=O)N1CCCCC1)NC1CCCCN(c2ncnc3[nH]ncc23)C1` (stereo not drawn) [Example 170]: < 100 nM.
